Patent US8519124B2, “Chemokine receptor antagonists and use thereof” (Ono Pharmaceutical Co., Ltd., priority 2005, dated 2013)

Experiments:
[1] = Measurement of maximum plasma level (Cmax) and bioavailability (BA); assay type: in vivo; conditions: male, Crl:CD(SD), po; rat plasma; orally administered solution 10 mg/kg, fasting
Experimental: Measurement of Maximum Plasma Level (CMax) and Bioavailability (BA)
A test compound is weighed, dissolved in Solutol (trade name; manufactured by BASF-TAKEDA Vitamins Ltd.)/propylene glycol=7/3 which is heated to 60° C. and adjusted to 20 mg/mL; thereafter, the test compound is diluted by 10 times with distilled water for injection, and further diluted by 2 times with saline solution, by which intravenously administered solution is eventually made. The test compound is weighed, dissolved in Solutol (trade name; manufactured by BASF-TAKEDA Vitamins Ltd.)/propylene glycol=7/3 which is heated to 60° C., and adjusted to 20 mg/mL; thereafter, the test compound is diluted by 10 times with distilled water for injection, by which orally administered solution is eventually made. Intravenous administration is performed by rapid single administration (n=3) of intravenously administered solution (1 mg/kg) from the tail vein of Crl:CD(SD) Rat (male, manufactured by CHARLES RIVER LABORATORIES JAPAN, INC). Oral administration is performed by forced administration (n=3) of orally administered solution (10 mg/kg) into the stomach of Crl:CD(SD) Rat (male, manufactured by CHARLES RIVER LABORATORIES JAPAN, INC.) using a sonde. The administration is conducted under fasting conditions; water is freely ingested. A 0.35 mL blood sample is taken from cervical vein by using Heparinized Syringe at 15 minutes, 30 minutes, 1 hour, 2 hours, 4 hours, 6 hours, 8 hours, and 24 hours after administration. The obtained blood is stored in ice, and after centrifugation at 12,000 rpm for 5 minutes, blood plasma is fractionated. The blood plasma is preserved at a temperature of −80° C. The sample of blood plasma preserved at a temperature of −80° C. is dissolved; inner standard solution (100 μL) and acetonitrile (2 mL) are added to the blood plasma sample 100 μL and stirred; and the sample is centrifuged at 2,500 rpm for 10 minutes. After the supernatant is evaporated to dryness by means of a centrifugal concentrator, 67% dimethyl sulfoxide solution (150 μL) is added to the residue and dissolves them again; and 20 μL of the solution is analyzed by means of LC/MS/MS.
The analysis by means of LC/MS/MS should be performed, for example, under the following conditions:
Measurement device: Waters 2795 (manufactured by Waters Corporation)
Analytical column: Unison UK-C18, 3.0 μm particle size, 2.0 mm×30 mm (manufactured by Imtakt Corporation)
Analytical column temperature: Room temperature
Moving bed: 5 mM IPC-PFAA-7 solution/acetonitrile (9/1→1/9)
Measurement device: Quatro micro API (manufactured by Micromass Communications Inc.)
Method for ionization: ES+
Capillary electric potential: 3.30 kV
Source temperature: 120° C.
Desolvation temperature: 350° C.
The monitor ion which was suitable for each sample was selected.
The concentration transition in the rat blood plasma of the test compound is analyzed by means of non-compartment analysis method by using WinNonlin 4.0.1 (manufactured by Pharsight Corporation) to calculate the maximum blood concentration Cmax and the area under the blood concentration curve AUC.
BA is calculated by means of the following formula: BA(%)={(AUCp.o./Dosep.o.)/(AUCi.v./Dosei.v.)}×100
AUCp.o.: AUC in oral administration
Dosep.o.: Amount of the drug orally administered
AUCi.v.: AUC in intravenous administration
Dosei.v.: Amount of the drug intravenously administered

[2] = system: DOPA liposome (artificial lipid membrane); test: Artificial lipid membrane binding by using Biacore S51 system; conditions: 50 μM compound
Experimental: Artificial Lipid Membrane Binding Account by Using Biacore (Registered Trademark) S51 System
10 mM of 1,2-Dioleoyl-sn-Glycero-3-Phosphate, Monosodium Salt (hereinafter abbreviated as DOPA) chloroform solution was evaporated to dryness by means of an aspirator, and 0.6 mL of PBS/5% dimethyl sulfoxide (hereinafter abbreviated as DMSO) was added. The chloroform solution was fully suspended by means of a vortex mixer, and the freezing and thawing were repeated for 5 times. Liposome was created by means of a liposome adjustment instrument (manufactured by Avestin Inc.) and 2 syringes, and was diluted to 0.5 mM with PBS/5% DMSO just prior to immobilization.
(ii) Measurement Compound Adjustment
The 38 μL of 1×PBS is added to 2 μL DMSO solution (10 mM), and further the 360 μL 1×PBS/5% DMSO was added; the 50 μM of final concentration in the 1×PBS/5% DMSO was adjusted and measured.
All of the following analysis used Biacore® S51 system; the measurement conditions were set by Biacore S51 Control Soft.
The measurement temperature was set to be 37° C., and the 1×PBS/5% DMSO (pH 7.4 or PH 6.0) was used as a buffer. Series S Sensor Chip L1 was used for a sensor chip. The DOPA was immobilized in one of the measuring spots on the sensor surface, and the central spot was used as a reference.
Immobilization of liposome was conducted at a flow rate of 10 μL/min for about 3 minutes; then the compound was added at a flow rate of 30 μL/min and the interaction was measured. The measurement conditions are as follows:
Assay buffer: PBS/5% DMSO (pH 7.4 or PH 6.0)
Measurement temperature: 37° C.
Sensor chip: Series S Sensor Chip L1
Flow rate: 10 μL/min at the time of the liposome immobilization; 30 μL/min at the time of the measurement of interaction with the compound
Regeneration: 20 mM CHAPS (3-[(3-Cholamidopropyl)dimethylammonio]-1-propanesulfonate), Isopropanol/50 mM sodium hydroxide solution=40/60 (volume ratio) mixture (60 seconds)
The data processing was conducted by means of method of Abdiche et al. (Analytical biochemistry, 328, 233-243 (2004)) by using Biacore S51 Evaluation Soft.
Regarding the value of binding response (RU) in which the value of reference was subtracted, it was divided by a sample molecular weight after minute error of the DMSO concentration included in the sample solution was corrected. In addition, the value obtained here was divided by an amount of capture at the time of the cycle because the value obtained here was proportional to the amount of capture of the liposome; further, the value was multiplied by a million to be considered as a corrected value (Corrected value=1000000)×RU (test compound)/molecular quantity (test compound) RU (liposome)).
Propranolol, Amiodarone, Desipramine, Imipramine and Procaine were added as the controls, and it was recognized that the variation of the binding response was within ca. 10 to 15%.
The compound, in which a value of the binding response after the correction was equal to or more than 150, was determined as positive.

Cmax [1]: 46 ng/mL
Corrected value of binding response (RU) ([2]; DOPA liposome on Sensor Chip L1, 37° C., PBS/5% DMSO (pH 7.4 or PH 6.0)): 80.7 RU
Compound: CC(C)(C)CN1CCC2(CCN(Cc3ccc(C(=O)N(Cc4ncc[nH]4)Cc4ncc[nH]4)cc3)CC2)C1 [Example 8 (114), 4-{[2-(2,2-dimethylpropyl)-2,8-diazaspiro[4.5]dec-8-yl]methyl}-N,N-bis(1H-imidazol-2-ylmethyl)benzamide]
Judgement (phospholipidosis inductive effect) ([2]; DOPA liposome): negative
